Values quoted from earlier work in US8679534B2, “HMG-CoA reductase inhibitor extended release formulation” (Andrx Labs, LLC, priority 1997, dated 2014).

System: blood serum cholesterol level
Details: background statement

CC[C@H](C)C(=O)O[C@H]1C[C@@H](C)C=C2C=C[C@H](C)[C@H](CC[C@@H]3C[C@@H](O)CC(=O)O3)[C@H]21 [Lovastatin, lovastatin]
lowering of the blood serum cholesterol level: 30-40%
